This note sets out measurements from patent publication US20220402925A1, “COMPOUNDS AND METHODS FOR THE TREATMENT OF CYSTIC FIBROSIS” (Flatley Discovery Lab, LLC, priority 2019, published 2022).

For this test, the target named is T1, F508del CFTR (Homo sapiens, UniProt P13569, DEL508-508).
T1 construct: Primary CF airway epithelial cells were obtained from the UNC Cystic Fibrosis Tissue Procurement and Cell Culture Core; host or cells: primary CF airway epithelial cells
T1 sequence (P13569 with tags, fused parts or gaps DEL508-508): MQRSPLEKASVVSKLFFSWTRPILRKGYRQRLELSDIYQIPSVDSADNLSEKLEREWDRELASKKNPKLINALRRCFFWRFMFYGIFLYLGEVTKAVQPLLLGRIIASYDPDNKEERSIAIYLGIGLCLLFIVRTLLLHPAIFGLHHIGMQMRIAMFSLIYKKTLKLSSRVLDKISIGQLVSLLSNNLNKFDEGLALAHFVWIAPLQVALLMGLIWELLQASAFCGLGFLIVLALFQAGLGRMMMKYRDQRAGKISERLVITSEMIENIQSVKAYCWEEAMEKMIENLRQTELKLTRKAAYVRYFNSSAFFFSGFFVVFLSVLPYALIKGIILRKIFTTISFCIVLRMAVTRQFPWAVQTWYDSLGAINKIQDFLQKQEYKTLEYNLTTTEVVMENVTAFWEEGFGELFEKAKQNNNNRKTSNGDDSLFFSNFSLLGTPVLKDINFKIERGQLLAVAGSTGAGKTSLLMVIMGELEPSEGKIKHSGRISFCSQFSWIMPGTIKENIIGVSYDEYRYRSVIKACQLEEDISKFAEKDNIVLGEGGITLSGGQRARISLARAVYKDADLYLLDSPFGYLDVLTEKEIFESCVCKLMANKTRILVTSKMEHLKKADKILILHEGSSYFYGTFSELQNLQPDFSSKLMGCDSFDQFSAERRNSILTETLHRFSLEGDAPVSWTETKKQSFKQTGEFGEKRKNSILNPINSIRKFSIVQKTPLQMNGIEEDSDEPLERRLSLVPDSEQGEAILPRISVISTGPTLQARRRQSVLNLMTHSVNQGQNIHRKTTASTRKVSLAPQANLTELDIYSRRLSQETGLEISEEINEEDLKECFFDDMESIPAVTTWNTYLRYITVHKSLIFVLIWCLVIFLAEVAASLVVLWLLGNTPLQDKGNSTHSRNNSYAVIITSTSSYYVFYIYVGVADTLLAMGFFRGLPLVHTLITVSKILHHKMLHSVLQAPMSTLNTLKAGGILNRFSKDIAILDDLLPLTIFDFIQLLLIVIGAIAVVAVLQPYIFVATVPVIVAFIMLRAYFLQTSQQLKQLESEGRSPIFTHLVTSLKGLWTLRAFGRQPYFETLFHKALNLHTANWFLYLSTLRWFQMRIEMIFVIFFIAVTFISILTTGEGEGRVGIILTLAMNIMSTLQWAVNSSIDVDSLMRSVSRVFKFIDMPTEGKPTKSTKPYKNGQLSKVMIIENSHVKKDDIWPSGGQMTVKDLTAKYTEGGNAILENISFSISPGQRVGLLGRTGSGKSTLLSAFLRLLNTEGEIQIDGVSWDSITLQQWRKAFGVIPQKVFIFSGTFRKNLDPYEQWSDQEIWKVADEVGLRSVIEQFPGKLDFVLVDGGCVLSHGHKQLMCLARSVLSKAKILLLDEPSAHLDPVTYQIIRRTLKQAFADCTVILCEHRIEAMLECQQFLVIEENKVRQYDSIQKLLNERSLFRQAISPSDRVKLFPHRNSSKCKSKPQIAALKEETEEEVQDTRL
Kind of test: Equivalent current assay in primary CF airway epithelial cells (Corrector Activity, NAUC normalized to 3 μM VX809). The class given is cell-based. Conditions: NAUC as % of positive control (VX-809). How it is done: Primary CF airway epithelial cells were obtained from the UNC Cystic Fibrosis Tissue Procurement and Cell Culture Core. The cells are grown at 37° C. in a Heracell 150i incubator using growth media (BEGM, Fischer). Cells were then transferred to differentiation media (airway liquid interface media (ALI) media; Lechner J F and LaVeck M A, J. Tissue Culture Methods 1985, 9: 43-48) for a minimum of 4 weeks on coated Costar transwells. Two days before the assay the mucus on the apical surface of the cells was aspirated after incubating with 200 μL of differentiation media for at least thirty (30) minutes. One day before the assay test compounds were added to the basolateral surface of the cells at various test concentrations dissolved in DMSO. Duplicate wells were prepared giving a n=4 or n=6 protocol.
Cells were treated for 24 hours with various combinations and concentrations of the test articles, reference standard (3 μM VX809, positive control). Compounds stock solutions were prepared in DMSO and diluted 1/1000 into ALI media to their final assay concentration. Cells were treated with combination solutions (2 mL of each dilution) and incubated at 37° C. for 24 h.
For the equivalent current assay, cells on six Transwell (24-well) plates were treated. Each Transwell plate was filled with 200 μl of HBS on the apical surface and 2 ml on the basolateral surface. Plates were placed horizontally in a heated mount at 37° C. and equilibrated for 30 minutes. Resting current was measured for 15 min and then blocked by the apical addition of 5 μM benzamil. After 20 min, CFTR activator (10 μM forskolin) and potentiator (either 1 μM VX-770 or 3 μM FDL176) were added to both the apical and basolateral side to stimulate CFTR. An increase in chloride current is seen as an upward deflection of the trace. After another 60 min, CFTR-172 (a CFTR inhibitor, 20 μM) and/or bumetanide (20 uM) was added to block CFTR mediated chloride current.
The raw data, voltage vs. time and resistance vs. time for the equivalent current assay (sampling interval: 6 minutes) were transferred to Excel (Microsoft Office Professional, version 14.0.7106.5003) for analysis. CFTR specific current was computed from I=V/R (Ohms Law), the average amplitude of the increase in current elicited upon addition forskolin and ending upon addition of the CFTR channel specific blocker CFTR-172. This average is equivalent to the sum of the average forskolin activated and the average VX770-potentiated currents. The average current measured in vehicle (0.1% DMSO) treated cells, IV, was subtracted from the current for the test article, ITA, or from the corrector reference standard VX809 (3 uM, ISTD). For replicate measurements, the averaged vehicle subtracted response for the test article, was normalized to the averaged vehicle subtracted response of the reference corrector VX809 (3 μM).
INSC=(ITA−IV)(ave)/(ISTD−IV)(ave) (Equation 1)
A second endpoint, for the equivalent current assay, evaluated was NAUC, the normalized area under the curve (AUC) measuring the response after addition of forskolin and potentiator to the time point right before the addition of the CFTR inhibitor. The AUC is effectively the average response multiplied by the duration of the response. The AUC of the test article, AUCTA was then corrected by subtracting the average vehicle response, AUCV,ave over the same time range, and normalized as for the inhibitor-sensitive current to the difference of the corrector reference standard VX809 (3 μM VX809r,ave and the vehicle response:
NAUCTA=[AUCTA−AUCV,ave]/[AUCVx809r,ave−AUCV,ave] (Equation 2).
The normalized value for DMSO is 0.0 and for VX-809 alone is 1.0 for both of these equations.
Experiments were run with a minimum of n=4 replicates per concentration. Since the distribution for the ratio of two normal distributions is a Cauchy distribution, the median value must be used for the average and the average deviation must be used for the error of all normalized data. […]
As for `Cc1nc2ccc(N(C)C(=O)Cn3nc(-c4cccc(F)c4)c4sccc4c3=O)cc2o1` [Example 1, 2-(7-(3-Fluorophenyl)-4-oxothieno[2,3-d]pyridazin-5(4H)-yl)-N-methyl-N-(2-methylbenzo[d]oxazol-6-yl)acetamide], the “Corr Activity (NAUC)” value is listed as “+++ (NAUC>70% of positive control)”.

In the case of `CN(C(=O)Cn1nc(-c2cccc(F)c2)c2sccc2c1=O)c1ccc2c(c1)CCC2` [Example 3], the “Corr Activity (NAUC)” value is listed as “+++ (NAUC>70% of positive control)”.

On to `CCN(C(=O)Cn1nc(-c2cccc(Cl)c2)c2sccc2c1=O)c1ccc2nc(C)oc2c1` [Example 4], for which the “Corr Activity (NAUC)” value is reported as “+++ (NAUC>70% of positive control)”.

Consider `CCN(C(=O)Cn1nc(-c2cccc(Cl)c2)c2sccc2c1=O)c1ccc2c(c1)OC(F)(F)O2` [Example 5], for which the “Corr Activity (NAUC)” value is “+++ (NAUC>70% of positive control)”.

For `CN(C(=O)Cn1nc(-c2cccc(C#N)c2)c2sccc2c1=O)c1ccc2c(c1)OC(F)(F)O2` [Example 7], the “Corr Activity (NAUC)” value is reported as “+++ (NAUC>70% of positive control)”.

In the case of `CCN(C(=O)Cn1nc(-c2cccc(Cl)c2)c2onc(C)c2c1=O)c1ccc2c(c1)OC(F)(F)O2` [Example 18], the “Corr Activity (NAUC)” value is reported as “++ (NAUC 70-40% of positive control)”.

For `Cc1nc2ccc(N(C)C(=O)Cn3nc(-c4cccc(F)c4)c4sc(C)nc4c3=O)cc2o1` [Example 19], the “Corr Activity (NAUC)” value is listed as “+++ (NAUC>70% of positive control)”.

Regarding `Cc1nc2ccc(N(C)C(=O)Cn3nc(-c4cccc(Cl)c4)c4sc(C)nc4c3=O)cc2o1` [Example 20], the “Corr Activity (NAUC)” value is “+++ (NAUC>70% of positive control)”.

In the case of `CCN(C(=O)Cn1nc(-c2cccc(Cl)c2)c2[nH]cnc2c1=O)c1ccc2c(c1)OC(F)(F)O2` [Example 26], the “Corr Activity (NAUC)” value was “+++ (NAUC>70% of positive control)”.

Take `N#Cc1cccc(-c2nn(CC(=O)N(c3ccc4c(c3)OC(F)(F)O4)C3CCC3)c(=O)c3ccoc23)c1` [Example 33, 2-(7-(3-cyanophenyl)-4-oxofuro[2,3-d]pyridazin-5(4H)-yl)-N-cyclobutyl-N-(2,2-difluorobenzo[d][1,3]dioxol-5-yl)acetamide]: the “Corr Activity (NAUC)” value was “+++ (NAUC>70% of positive control)”.

As for `N#Cc1cccc(-c2nn(CC(=O)N(c3ccc4c(c3)OC(F)(F)O4)C3CCOC3)c(=O)c3ccoc23)c1` (stereo not shown) [Example 39], the “Corr Activity (NAUC)” value is listed as “+++ (NAUC>70% of positive control)”.

For `N#Cc1cccc(-c2nn(CC(=O)N(c3ccc4c(c3)OC(F)(F)O4)C3CC3)c(=O)c3ccoc23)c1` [Example 40], the “Corr Activity (NAUC)” value is on record as “++ (NAUC 70-40% of positive control)”.

As to `CN(C(=O)Cn1nc(-c2cc(F)cc(F)c2)c2occc2c1=O)c1ccc2c(c1)OC(F)(F)O2` [Example 41], the “Corr Activity (NAUC)” value is reported as “+++ (NAUC>70% of positive control)”.

For the compound `CN(C(=O)Cn1nc(-c2cc(Cl)cc(Cl)c2)c2occc2c1=O)c1ccc2c(c1)OC(F)(F)O2` [Example 42], the “Corr Activity (NAUC)” value is reported as “+++ (NAUC>70% of positive control)”.

With `CCN(C(=O)Cn1nc(-c2cccc(F)c2)c2c(c1=O)CCC2)c1ccc2nc(C)oc2c1` [Example 43], the “Corr Activity (NAUC)” value was “+++ (NAUC>70% of positive control)”.

Take `Cc1cc2c(cc1N(C)C(=O)Cn1nc(-c3cccc(C#N)c3)c3occc3c1=O)OC(F)(F)O2` [Example 44]: the “Corr Activity (NAUC)” value is listed as “+++ (NAUC>70% of positive control)”.

Turning to `CCN(C(=O)Cn1nc(-c2cccc(C#N)c2)c2occc2c1=O)c1cc2c(cc1C)OC(F)(F)O2` [Example 45], the “Corr Activity (NAUC)” value is given as “+++ (NAUC>70% of positive control)”.

`CCN(C(=O)Cn1nc(-c2cc(F)cc(OC)c2)c2occc2c1=O)c1ccc2c(c1)OC(F)(F)O2` [Example 47]: the “Corr Activity (NAUC)” value was “+++ (NAUC>70% of positive control)”.

As for `Cc1nc2ccc(N(C)C(=O)Cn3nc(-c4cccc(Cl)c4)c4c(c3=O)CCC4)cc2o1` [Example 48], the “Corr Activity (NAUC)” value is listed as “++ (NAUC 70-40% of positive control)”.

In the case of `CCN(C(=O)Cn1nc(-c2cccc(Cl)c2)c2c(c1=O)CCC2)c1ccc2nc(C)oc2c1` [Example 49], the “Corr Activity (NAUC)” value is given as “++ (NAUC 70-40% of positive control)”.

For `CCN(C(=O)Cn1nc(-c2cccc(C#N)c2)c2c(c1=O)CCC2)c1ccc2nc(C)oc2c1` [Example 50], the “Corr Activity (NAUC)” value was “+++ (NAUC>70% of positive control)”.

For `O=C(Cn1nc(-c2cccc(Cl)c2)c2occc2c1=O)N1CCCc2c1ccc1c2OC(F)(F)O1` [Example 51], the “Corr Activity (NAUC)” value is reported as “++ (NAUC 70-40% of positive control)”.

For `N#Cc1cccc(-c2nn(CC(=O)N3CCCc4c3ccc3c4OC(F)(F)O3)c(=O)c3ccoc23)c1` [Example 52], the “Corr Activity (NAUC)” value is “++ (NAUC 70-40% of positive control)”.

For `Cc1c(N(C)C(=O)Cn2nc(-c3cccc(C#N)c3)c3occc3c2=O)ccc2c1OC(F)(F)O2` [Example 53], the “Corr Activity (NAUC)” value is reported as “+++ (NAUC>70% of positive control)”.

In the case of `CCN(C(=O)Cn1nc(-c2cccc(C#N)c2)c2occc2c1=O)c1ccc2c(c1C)OC(F)(F)O2` [Example 54], the “Corr Activity (NAUC)” value was “+++ (NAUC>70% of positive control)”.

Turning to `CCc1c(N(CC)C(=O)Cn2nc(-c3cccc(C#N)c3)c3occc3c2=O)ccc2c1OC(F)(F)O2` [Example 55], the “Corr Activity (NAUC)” value is “+++ (NAUC>70% of positive control)”.

For the compound `CCc1cc2c(cc1N(CC)C(=O)Cn1nc(-c3cccc(C#N)c3)c3occc3c1=O)OC(F)(F)O2` [Example 56], the “Corr Activity (NAUC)” value is listed as “+ (NAUC<40% of positive control)”.

For the compound `N#Cc1cccc(-c2nn(CC(=O)N3CC4(CC4)c4c3ccc3c4OC(F)(F)O3)c(=O)c3ccoc23)c1` [Example 58], the “Corr Activity (NAUC)” value is “+ (NAUC<40% of positive control)”.

For the compound `CN(C(=O)Cn1nc(-c2cccc(C#N)c2)c2occc2c1=O)c1ccc2c(c1F)OC(F)(F)O2` [Example 59], the “Corr Activity (NAUC)” value is reported as “+++ (NAUC>70% of positive control)”.

In the case of `CCN(C(=O)Cn1nc(-c2cccc(C#N)c2)c2occc2c1=O)c1ccc2c(c1F)OC(F)(F)O2` [Example 60], the “Corr Activity (NAUC)” value was “+++ (NAUC>70% of positive control)”.

On to `CCN(C(=O)Cn1nc(-c2cccc(C#N)c2)c2occc2c1=O)c1ccc(C(F)(F)F)cc1` [Example 61], for which the “Corr Activity (NAUC)” value is on record as “+ (NAUC<40% of positive control)”.

With `CCN(C(=O)Cn1nc(-c2cccc(C#N)c2)c2occc2c1=O)c1ccc(OC(F)(F)F)cc1` [Example 62], the “Corr Activity (NAUC)” value is “+ (NAUC<40% of positive control)”.

As for `CCN(C(=O)Cn1nc(-c2cccc(C#N)c2)c2oc(Cl)cc2c1=O)c1ccc2c(c1)OC(F)(F)O2` [Example 63], the “Corr Activity (NAUC)” value is “++ (NAUC 70-40% of positive control)”.

In the case of `CN(C(=O)Cn1nc(-c2cccc(C#N)c2)c2oc(Cl)cc2c1=O)c1ccc2c(c1)OC(F)(F)O2` [Example 64], the “Corr Activity (NAUC)” value is given as “++ (NAUC 70-40% of positive control)”.

In the case of `CN(C(=O)Cn1nc(-c2cccc(Cl)c2)c2oc(C(=O)N3CCCC3)cc2c1=O)c1ccc2c(c1)OC(F)(F)O2` [Example 65, 2-(7-(3-chlorophenyl)-4-oxo-2-(pyrrolidine-1-carbonyl)furo[2,3-d]pyridazin-5(4H)-yl)-N-(2,2-difluorobenzo[d][1,3]dioxol-5-yl)-N-methylacetamide], the “Corr Activity (NAUC)” value is reported as “+ (NAUC<40% of positive control)”.

In the case of `CCN(C(=O)Cn1nc(-c2cccc(C#N)c2)c2oc(C)cc2c1=O)c1ccc2c(c1)OC(F)(F)O2` [Example 69], the “Corr Activity (NAUC)” value is on record as “+++ (NAUC>70% of positive control)”.

As for `Cc1cc2c(=O)n(CC(=O)N(C)c3ccc4c(c3)OC(F)(F)O4)nc(-c3cc(Cl)cc(Cl)c3)c2o1` [Example 70], the “Corr Activity (NAUC)” value is “+++ (NAUC>70% of positive control)”.
